test system: Puccinia recondita; assay: Use Example 4: preventative control of brown rust on wheat (PUCCRT P7); assay type: in vivo; details: inoculated seven days after spraying, 4 ppm, % diseased leaf area
Description: (§1) The compound was dissolved in a mixture of acetone and/or dimethylsulfoxide and the wetting agent/emulsifier Wettol, which is based on ethoxylated alkylphenoles, in a ratio (volume) solvent-emulsifier of 99 to 1 to give a total volume of 5 ml. Subsequently, water was added to total volume of 100 ml. This stock solution was then diluted with the described solvent-emulsifier-water mixture to the final concentration given in the tables below.
Use Example 4. Preventative Control of Brown Rust on Wheat Caused by Puccinia recondita (PUCCRT P7)
The first two developed leaves of potted wheat seedling were sprayed to run-off with previously described spray solution, containing the concentration of active ingredient or their mixture as described below. Seven days later the plants were dusted with spores of Puccinia recondita. To ensure the success of the artificial inoculation, the plants were transferred to a humid chamber without light and a relative humidity of 95 to 99% and 20 to 24° C. for 24 h. Then the trial plants were cultivated for 9 to 11 days in a greenhouse chamber at 20 to 24° C. and a relative humidity between 65 and 70%. The extent of fungal attack on the leaves was visually assessed as % diseased leaf area, the disease level of untreated controls was usually between 80 and 100%.

Structure (SMILES) | % PUCCRT Disease level P7 at 4 ppm
CO/C=C(/C(=O)OC)c1cccc(Cl)c1CO/N=C(\COC)c1cc(Cl)ccc1F [compound 105] | 44%
CO/C=C(/C(=O)OC)c1cccc(Cl)c1CO/N=C(\COC)c1ccc(F)c(F)c1 [compound 92] | 3%
CO/C=C(/C(=O)OC)c1cccc(Cl)c1CO/N=C(\COC)c1cccc(C#N)c1 [compound 116] | 15%
CCOCC(=NOCc1c(Cl)cccc1C(=COC)C(=O)OC)c1ccc(F)cc1 [compound 23] | 37%
CNC(=O)/C(=N/OC)c1cccc(Cl)c1CO/N=C(\COC)c1cc(Cl)ccc1F [compound 107] | 41%
CCOCC(=NOCc1c(Cl)cccc1C(=COC)C(=O)OC)c1ccccc1F [compound 18] | 80%
CCOC/C(=N\OCc1c(Br)cccc1/C(=C\OC)C(=O)OC)c1ccc(F)cc1 [compound 66] | 27%

same assay, conditions: inoculated seven days after spraying, 16 ppm, % diseased leaf area

Structure (SMILES) | % PUCCRT Disease level P7 at 16 ppm
CO/C=C(/C(=O)OC)c1cccc(Cl)c1CO/N=C(\COC)c1cc(Cl)ccc1F [compound 105] | 4%
CO/C=C(/C(=O)OC)c1cccc(Cl)c1CO/N=C(\COC)c1ccc(F)c(F)c1 [compound 92] | 3%
CO/C=C(/C(=O)OC)c1cccc(Cl)c1CO/N=C(\COC)c1cccc(C#N)c1 [compound 116] | 3%
CCOCC(=NOCc1c(Cl)cccc1C(=COC)C(=O)OC)c1ccc(F)cc1 [compound 23] | 6%
CNC(=O)/C(=N/OC)c1cccc(Cl)c1CO/N=C(\COC)c1cc(Cl)ccc1F [compound 107] | 7%
CCOCC(=NOCc1c(Cl)cccc1C(=COC)C(=O)OC)c1ccccc1F [compound 18] | 30%
CCOC/C(=N\OCc1c(Br)cccc1/C(=C\OC)C(=O)OC)c1ccc(F)cc1 [compound 66] | 4%

test system: Phakopsora pachyrhizi containing the amino acid substitution F129L in the mitochondrial cytochrome b protein; assay: Use Example 1: protective control of soybean rust on soybeans (PHAKPA P2); assay type: in vivo; details: inoculated 2 days after spraying, 4 ppm, % diseased leaf area
Description: as §1
Use Example 1. Protective Control of Soybean Rust on Soybeans Caused by Phakopsora pachyrhizi (PHAKPA P2)
(§2) Leaves of potted soybean seedlings were sprayed to run-off with the previously described spray solution, containing the concentration of active ingredient or their mixture as described below. The plants were allowed to air-dry. The trial plants were cultivated for 2 days in a greenhouse chamber at 23-27° C. and a relative humidity between 60 and 80%. Then the plants were inoculated with spores of Phakopsora pachyrhizi. The strain used contains the amino acid substitution F129L in the mitochondrial cytochrome b protein conferring resistance to Qo inhibitors. To ensure the success the artificial inoculation, the plants were transferred to a humid chamber with a relative humidity of about 95% and 20 to 24° C. for 24 hr. The trial plants were cultivated for up to 14 days in a greenhouse chamber at 23 to 27° C. and a relative humidity between 60 and 80%. The extent of fungal attack on the leaves was visually assessed as % diseased leaf area, the disease level of untreated controls was usually higher than 85%.

Structure (SMILES) | % PHAKPA (F129L) Disease level P2 at 4 ppm
CO/C=C(/C(=O)OC)c1cccc(Cl)c1CO/N=C(\COC)c1cc(Cl)ccc1F [compound 105] | 18%
CO/C=C(/C(=O)OC)c1cccc(Cl)c1CO/N=C(\COC)c1ccc(F)c(F)c1 [compound 92] | 0%
CO/C=C(/C(=O)OC)c1cccc(Cl)c1CO/N=C(\COC)c1cccc(C#N)c1 [compound 116] | 31%
CCOCC(=NOCc1c(Cl)cccc1C(=COC)C(=O)OC)c1ccc(F)cc1 [compound 23] | 9%
CNC(=O)/C(=N/OC)c1cccc(Cl)c1CO/N=C(\COC)c1cc(Cl)ccc1F [compound 107] | 29%
CCOCC(=NOCc1c(Cl)cccc1C(=COC)C(=O)OC)c1ccccc1F [compound 18] | 6%
CCOC/C(=N\OCc1c(Br)cccc1/C(=C\OC)C(=O)OC)c1ccc(F)cc1 [compound 66] | 11%

same assay, conditions: inoculated 2 days after spraying, 16 ppm, % diseased leaf area

Structure (SMILES) | % PHAKPA (F129L) Disease level P2 at 16 ppm
CO/C=C(/C(=O)OC)c1cccc(Cl)c1CO/N=C(\COC)c1cc(Cl)ccc1F [compound 105] | 2%
CO/C=C(/C(=O)OC)c1cccc(Cl)c1CO/N=C(\COC)c1ccc(F)c(F)c1 [compound 92] | 0%
CO/C=C(/C(=O)OC)c1cccc(Cl)c1CO/N=C(\COC)c1cccc(C#N)c1 [compound 116] | 3%
CCOCC(=NOCc1c(Cl)cccc1C(=COC)C(=O)OC)c1ccc(F)cc1 [compound 23] | 0%
CNC(=O)/C(=N/OC)c1cccc(Cl)c1CO/N=C(\COC)c1cc(Cl)ccc1F [compound 107] | 3%
CCOCC(=NOCc1c(Cl)cccc1C(=COC)C(=O)OC)c1ccccc1F [compound 18] | 0%
CCOC/C(=N\OCc1c(Br)cccc1/C(=C\OC)C(=O)OC)c1ccc(F)cc1 [compound 66] | 1%

test system: Puccinia recondita; assay: Use Example 3: curative control of brown rust on wheat (PUCCRT K4); assay type: in vivo; details: 4 ppm, % diseased leaf area
Description: as §1
Use Example 3. Curative Control of Brown Rust on Wheat Caused by Puccinia recondita (PUCCRT K4)
The first two developed leaves of potted wheat seedling were dusted with spores of Puccinia recondita. To ensure the success the artificial inoculation, the plants were transferred to a humid chamber without light and a relative humidity of 95 to 99% and 20 to 24° C. for 24 h. The next 3 days the plants were cultivated in a greenhouse chamber at 20 to 24° C. and a relative humidity between 65 and 70%. Then the plants were sprayed to run-off with previously described spray solution, containing the concentration of active ingredient or their mixture as described below. The plants were allowed to air-dry. Then the trial plants were cultivated for 5 to 7 days in a greenhouse chamber at 20 to 24° C. and a relative humidity between 65 and 70%. The extent of fungal attack on the leaves was visually assessed as % diseased leaf area, the disease level of untreated controls was usually between 80 and 100%.

Structure (SMILES) | % PUCCRT Disease level K4 at 4 ppm
CO/C=C(/C(=O)OC)c1cccc(Cl)c1CO/N=C(\COC)c1cc(Cl)ccc1F [compound 105] | 42%
CO/C=C(/C(=O)OC)c1cccc(Cl)c1CO/N=C(\COC)c1ccc(F)c(F)c1 [compound 92] | 6%
CO/C=C(/C(=O)OC)c1cccc(Cl)c1CO/N=C(\COC)c1cccc(C#N)c1 [compound 116] | 5%
CCOCC(=NOCc1c(Cl)cccc1C(=COC)C(=O)OC)c1ccc(F)cc1 [compound 23] | 67%
CNC(=O)/C(=N/OC)c1cccc(Cl)c1CO/N=C(\COC)c1cc(Cl)ccc1F [compound 107] | 80%
CCOCC(=NOCc1c(Cl)cccc1C(=COC)C(=O)OC)c1ccccc1F [compound 18] | 77%
CCOC/C(=N\OCc1c(Br)cccc1/C(=C\OC)C(=O)OC)c1ccc(F)cc1 [compound 66] | 62%

same assay, conditions: 16 ppm, % diseased leaf area

Structure (SMILES) | % PUCCRT Disease level K4 at 16 ppm
CO/C=C(/C(=O)OC)c1cccc(Cl)c1CO/N=C(\COC)c1cc(Cl)ccc1F [compound 105] | 5%
CO/C=C(/C(=O)OC)c1cccc(Cl)c1CO/N=C(\COC)c1ccc(F)c(F)c1 [compound 92] | 0%
CO/C=C(/C(=O)OC)c1cccc(Cl)c1CO/N=C(\COC)c1cccc(C#N)c1 [compound 116] | 0%
CCOCC(=NOCc1c(Cl)cccc1C(=COC)C(=O)OC)c1ccc(F)cc1 [compound 23] | 23%
CNC(=O)/C(=N/OC)c1cccc(Cl)c1CO/N=C(\COC)c1cc(Cl)ccc1F [compound 107] | 9%
CCOCC(=NOCc1c(Cl)cccc1C(=COC)C(=O)OC)c1ccccc1F [compound 18] | 32%
CCOC/C(=N\OCc1c(Br)cccc1/C(=C\OC)C(=O)OC)c1ccc(F)cc1 [compound 66] | 8%

test system: Phakopsora pachyrhizi containing the amino acid substitution F129L in the mitochondrial cytochrome b protein; assay: Use Example 2: protective control of soybean rust on soybeans (PHAKPA P6); assay type: in vivo; details: inoculated six days after spraying, 4 ppm, % diseased leaf area
Description: as §1
Use Example 2. Protective Control of Soybean Rust on Soybeans Caused by Phakopsora Pachyrhizi (PHAKPA P6)
as §2, with “active ingredient as described” for “active ingredient or their mixture as described”, “cultivated for six days in” for “cultivated for 2 days in”, “95% and 23 to 27°” for “95% and 20 to 24°”, “23 to 27° C. for” for “20 to 24° C. for”

Structure (SMILES) | % PHAKPA (F129L) Disease level P6 at 4 ppm
CO/C=C(/C(=O)OC)c1cccc(Cl)c1CO/N=C(\COC)c1cc(Cl)ccc1F [compound 105] | 13%
CO/C=C(/C(=O)OC)c1cccc(Cl)c1CO/N=C(\COC)c1ccc(F)c(F)c1 [compound 92] | 12%
CO/C=C(/C(=O)OC)c1cccc(Cl)c1CO/N=C(\COC)c1cccc(C#N)c1 [compound 116] | 48%
CCOCC(=NOCc1c(Cl)cccc1C(=COC)C(=O)OC)c1ccc(F)cc1 [compound 23] | 25%
CNC(=O)/C(=N/OC)c1cccc(Cl)c1CO/N=C(\COC)c1cc(Cl)ccc1F [compound 107] | 19%
CCOCC(=NOCc1c(Cl)cccc1C(=COC)C(=O)OC)c1ccccc1F [compound 18] | 22%
CCOC/C(=N\OCc1c(Br)cccc1/C(=C\OC)C(=O)OC)c1ccc(F)cc1 [compound 66] | 13%

same assay, conditions: inoculated six days after spraying, 16 ppm, % diseased leaf area

Structure (SMILES) | % PHAKPA (F129L) Disease level P6 at 16 ppm
CO/C=C(/C(=O)OC)c1cccc(Cl)c1CO/N=C(\COC)c1cc(Cl)ccc1F [compound 105] | 0%
CO/C=C(/C(=O)OC)c1cccc(Cl)c1CO/N=C(\COC)c1ccc(F)c(F)c1 [compound 92] | 0%
CO/C=C(/C(=O)OC)c1cccc(Cl)c1CO/N=C(\COC)c1cccc(C#N)c1 [compound 116] | 11%
CCOCC(=NOCc1c(Cl)cccc1C(=COC)C(=O)OC)c1ccc(F)cc1 [compound 23] | 6%
CNC(=O)/C(=N/OC)c1cccc(Cl)c1CO/N=C(\COC)c1cc(Cl)ccc1F [compound 107] | 3%
CCOCC(=NOCc1c(Cl)cccc1C(=COC)C(=O)OC)c1ccccc1F [compound 18] | 2%
CCOC/C(=N\OCc1c(Br)cccc1/C(=C\OC)C(=O)OC)c1ccc(F)cc1 [compound 66] | 1%

Reference: patent US20260165323A1, “USE OF STROBILURIN TYPE COMPOUNDS FOR COMBATING PHYTOPATHOGENIC FUNGI CONTAINING AN AMINO ACID SUBSTITUTION F129L IN THE MITOCHONDRIAL CYTOCHROME B PROTEIN CONFERRING RESISTANCE TO QO […]” (priority 2022, published 2026)
